Data: patent US7750003B2, “Compounds-943” (AstraZeneca AB, priority 2006, dated 2010)

system: phosphorylation of Serine 473 in Akt in MDA-MB-468 human breast adenocarcinoma cells; test: In vitro phospho-Ser473 Akt assay (Test (c)); format: cell-based; conditions: Homo sapiens, MDA-MB-468, 2 h, MDA-MB-468 cells, 2 hours incubation; read-out: Test (c): IC50 versus Serine 473 in Akt
Protocol: (c) In Vitro Phospho-Ser473 Akt Assay
This assay determines the ability of test compounds to inhibit phosphorylation of Serine 473 in Akt as assessed using Acumen Explorer technology (Acumen Bioscience Limited), a plate reader that can be used to rapidly quantitate features of images generated by laser-scanning.
A MDA-MB-468 human breast adenocarcinoma cell line (LGC Promochem, Teddington, Middlesex, UK, Catalogue No. HTB-132) was routinely maintained at 37° C. with 5% CO2 up to a confluency of 70-90% in DMEM containing 10% heat-inactivated FCS and 1% L-glutamine.
For the assay, the cells were detached from the culture flask using ‘Accutase’ (Innovative Cell Technologies Inc., San Diego, Calif., USA; Catalogue No. AT104) using standard tissue culture methods and resuspended in media to give 1.7×10^5 cells per mL. Aliquots (90 μl) were seeded into each of the inner 60 wells of a black Packard 96 well plate (PerkinElmer, Boston, Mass., USA; Catalogue No. 6005182) to give a density of 15000 cells per well. Aliquots (90 μl) of culture media were placed in the outer wells to prevent edge effects. The cells were incubated overnight at 37° C. with 5% CO2 to allow them to adhere.
On day 2, the cells were treated with test compounds and incubated for 2 hours at 37° C. with 5% CO2. Test compounds were prepared as 10 mM stock solutions in DMSO and serially diluted as required with growth media to give a range of concentrations that were 10-fold the required final test concentrations. Aliquots (10 μl) of each compound dilution were placed in a well (in triplicate) to give the final required concentrations. As a minimum response control, each plate contained wells having a final concentration of 100 μM LY294002 (Calbiochem, Beeston, UK, Catalogue No. 440202). As a maximum response control, wells contained 1% DMSO instead of test compound. Following incubation, the contents of the plates were fixed by treatment with a 1.6% aqueous formaldehyde solution (Sigma, Poole, Dorset, UK, Catalogue No. F1635) at room temperature for 1 hour.
All subsequent aspiration and wash steps were carried out using a Tecan 96 well plate washer (aspiration speed 10 mm/sec). The fixing solution was removed and the contents of the plates were washed with phosphate-buffered saline (PBS; 50 μl; Gibco, Catalogue No. 10010015). The contents of the plates were treated for 10 minutes at room temperature with an aliquot (50 μl) of a cell permeabilisation buffer consisting of a mixture of PBS and 0.5% Tween-20. The ‘permeabilisation’ buffer was removed and non-specific binding sites were blocked by treatment for 1 hour at room temperature of an aliquot (50 μl) of a blocking buffer consisting of 5% dried skimmed milk [‘Marvel’ (registered trade mark); Premier Beverages, Stafford, GB] in a mixture of PBS and 0.05% Tween-20. The ‘blocking’ buffer was removed and the cells were incubated for 1 hour at room temperature with rabbit anti phospho-Akt (Ser473) antibody solution (50 μl per well; Cell Signalling, Hitchin, Herts, U.K., Catalogue No 9277) that had been diluted 1:500 in ‘blocking’ buffer. Cells were washed three times in a mixture of PBS and 0.05% Tween-20. Subsequently, cells were incubated for 1 hour at room temperature with Alexafluor488 labelled goat anti-rabbit IgG (50 μl per well; Molecular Probes, Invitrogen Limited, Paisley, UK, Catalogue No. A11008) that had been diluted 1:500 in ‘blocking’ buffer. Cells were washed 3 times with a mixture of PBS and 0.05% Tween-20. An aliquot of PBS (50 μl) was added to each well and the plates were sealed with black plate sealers and the fluorescence signal was detected and analysed.
Fluorescence dose response data obtained with each compound were analysed and the degree of inhibition of Serine 473 in Akt was expressed as an IC50 value.

Going from `CC(C)CNC(=O)Nc1ccc(-c2nc(N3CCOC[C@@H]3C)cc(C(C)(C)S(C)(=O)=O)n2)cc1` [Example 24at, 1-[4-[4-[(3S)-3-methylmorpholin-4-yl]-6-(2-methylsulfonylpropan-2-yl)pyrimidin-2-yl]phenyl]-3-(2-methylpropyl)urea] to `C[C@H]1COCCN1c1cc(C(C)(C)S(C)(=O)=O)nc(-c2ccc(NC(=O)N(C)C)cc2)n1` [Example 24ba, 1,1-dimethyl-3-[4-[4-[(3S)-3-methylmorpholin-4-yl]-6-(2-methylsulfonylpropan-2-yl)pyrimidin-2-yl]phenyl]urea], the IC50 rises from 89 nM to 5100 nM (57-fold).

Compared with `C[C@H]1COCCN1c1cc(C(C)(C)S(C)(=O)=O)nc(-c2ccc(NC(=O)NCc3ncc[nH]3)cc2)n1` [Example 24au, 3-(1H-imidazol-2-ylmethyl)-1-[4-[4-[(3S)-3-methylmorpholin-4-yl]-6-(2-methylsulfonylpropan-2-yl)pyrimidin-2-yl]phenyl]urea], `C[C@H]1COCCN1c1cc(C(C)(C)S(C)(=O)=O)nc(-c2ccc(NC(=O)NCc3cc[nH]n3)cc2)n1` [Example 24ay, 1-[4-[4-[(3S)-3-methylmorpholin-4-yl]-6-(2-methylsulfonylpropan-2-yl)pyrimidin-2-yl]phenyl]-3-(1H-pyrazol-3-ylmethyl)urea] is 3.3-fold higher in IC50: 2400 nM for the first, 7900 nM for the second. The first is the more potent here.

`C[C@H]1COCCN1c1cc(C(C)(C)S(C)(=O)=O)nc(-c2ccc(NC(=O)NCc3cnn(C)c3)cc2)n1` [Example 24av, 1-[4-[4-[(3S)-3-methylmorpholin-4-yl]-6-(2-methylsulfonylpropan-2-yl)pyrimidin-2-yl]phenyl]-3-[(1-methylpyrazol-4-yl)methyl]urea] and `C[C@H]1COCCN1c1cc(C(C)(C)S(C)(=O)=O)nc(-c2ccc(NC(=O)NCc3ccn(C)n3)cc2)n1` [Example 24az, 1-[4-[4-[(3S)-3-methylmorpholin-4-yl]-6-(2-methylsulfonylpropan-2-yl)pyrimidin-2-yl]phenyl]-3-[(1-methylpyrazol-3-yl)methyl]urea] are within 1.5-fold of each other in IC50: 4900 nM for the first, 5600 nM for the second.

`Cc1cc(CNC(=O)Nc2ccc(-c3nc(N4CCOC[C@@H]4C)cc(C(C)(C)S(C)(=O)=O)n3)cc2)no1` [Example 24aw, 3-[4-[4-[(3S)-3-methylmorpholin-4-yl]-6-(2-methylsulfonylpropan-2-yl)pyrimidin-2-yl]phenyl]-1-[(5-methyl-1,2-oxazol-3-yl)methyl]urea] and `C[C@H]1COCCN1c1cc(C(C)(C)S(C)(=O)=O)nc(-c2ccc(NC(=O)N(C)C3CC3)cc2)n1` [Example 24bg, 1-cyclopropyl-1-methyl-3-[4-[4-[(3S)-3-methylmorpholin-4-yl]-6-(2-methylsulfonylpropan-2-yl)pyrimidin-2-yl]phenyl]urea] are within 1.5-fold of each other in IC50: 3400 nM for the first, 2400 nM for the second.

Compared with `CC(NC(=O)Nc1ccc(-c2nc(N3CCOC[C@@H]3C)cc(C(C)(C)S(C)(=O)=O)n2)cc1)c1cccnc1` (stereo partly drawn) [Example 24ax, 1-[4-[4-[(3S)-3-methylmorpholin-4-yl]-6-(2-methylsulfonylpropan-2-yl)pyrimidin-2-yl]phenyl]-3-(1-pyridin-3-ylethyl)urea], `C[C@H]1COCCN1c1cc(C(C)(C)S(C)(=O)=O)nc(-c2ccc(NC(=O)N3CCC3)cc2)n1` [Example 24be, N-[4-[4-[(3S)-3-methylmorpholin-4-yl]-6-(2-methylsulfonylpropan-2-yl)pyrimidin-2-yl]phenyl]azetidine-1-carboxamide] is 7.7-fold higher in IC50: 640 nM for the first, 4900 nM for the second.

First: C[C@H]1COCCN1c1cc(C(C)(C)S(C)(=O)=O)nc(-c2ccc(NC(=O)N3CCOCC3)cc2)n1 [Example 24bb, N-[4-[4-[(3S)-3-methylmorpholin-4-yl]-6-(2-methylsulfonylpropan-2-yl)pyrimidin-2-yl]phenyl]morpholine-4-carboxamide]
Second: C[C@H]1COCCN1c1cc(C(C)(C)S(C)(=O)=O)nc(-c2ccc(NC(=O)N3CCC(O)CC3)cc2)n1 [Example 24bc, 4-hydroxy-N-[4-[4-[(3S)-3-methylmorpholin-4-yl]-6-(2-methylsulfonylpropan-2-yl)pyrimidin-2-yl]phenyl]piperidine-1-carboxamide]
The IC50 of the first is 11-fold higher: 7800 nM for the first, 690 nM for the second.

Compared with `C[C@H]1COCCN1c1cc(C(C)(C)S(C)(=O)=O)nc(-c2ccc(NC(=O)N3CCCC(O)C3)cc2)n1` (stereo partly drawn) [Example 24bd, 3-hydroxy-N-[4-[4-[(3S)-3-methylmorpholin-4-yl]-6-(2-methylsulfonylpropan-2-yl)pyrimidin-2-yl]phenyl]piperidine-1-carboxamide], `C[C@H]1COCCN1c1cc(C(C)(C)S(C)(=O)=O)nc(-c2ccc(NC(=O)N3CC(O)C3)cc2)n1` [Example 24bf, 3-hydroxy-N-[4-[4-[(3S)-3-methylmorpholin-4-yl]-6-(2-methylsulfonylpropan-2-yl)pyrimidin-2-yl]phenyl]azetidine-1-carboxamide] is 2.1-fold higher in IC50: 3200 nM for the first, 6700 nM for the second.

First: CC(=O)NCCS(=O)(=O)Cc1cc(N2CCOC[C@@H]2C)nc(-c2ccc(NC(=O)Nc3ccon3)cc2)n1 [Example 40, N-[2-[[6-[(3S)-3-methylmorpholin-4-yl]-2-[4-(1,2-oxazol-3-ylcarbamoylamino)phenyl]pyrimidin-4-yl]methylsulfonyl]ethyl]acetamide]
Second: C[C@H]1COCCN1c1cc(CS(=O)(=O)CCO)nc(-c2ccc(NC(=O)Nc3ccon3)cc2)n1 [Example 40a, 1-[4-[4-(2-hydroxyethylsulfonylmethyl)-6-[(3S)-3-methylmorpholin-4-yl]pyrimidin-2-yl]phenyl]-3-(1,2-oxazol-3-yl)urea]
The IC50 of the first is 1.8-fold higher: 100 nM for the first, 55 nM for the second.

Compared with `C[C@H]1COCCN1c1cc(C(C)(C)O)nc(-c2ccc(NC(=O)Nc3ccon3)cc2)n1` [Example 41, 1-[4-[4-(2-Hydroxypropan-2-yl)-6-[(3S)-3-methylmorpholin-4-yl]pyrimidin-2-yl]phenyl]-3-(1,2-oxazol-3-yl)urea], `CCNC(=O)Nc1ccc(-c2nc(CS(=O)(=O)c3ccncc3)cc(N3CCOC[C@@H]3C)n2)cc1` [Example 48a, 3-ethyl-1-[4-[4-[(3S)-3-methylmorpholin-4-yl]-6-(pyridin-4-ylsulfonylmethyl)pyrimidin-2-yl]phenyl]urea] is 5.3-fold higher in IC50: 47 nM for the first, 250 nM for the second. The first is the more potent here.

Going from `Cc1nnc(S(=O)(=O)Cc2cc(N3CCOC[C@@H]3C)nc(-c3ccc(NC(=O)NC4CC4)cc3)n2)s1` [Example 43g, 3-cyclopropyl-1-[4-[4-[(3S)-3-methylmorpholin-4-yl]-6-[(5-methyl-1,3,4-thiadiazol-2-yl)sulfonylmethyl]pyrimidin-2-yl]phenyl]urea] to `C[C@H]1COCCN1c1cc(CS(=O)(=O)c2ccncc2)nc(-c2ccc(NC(=O)NC3CCC3)cc2)n1` [Example 48, 3-Cyclobutyl-1-[4-[4-[(3S)-3-methylmorpholin-4-yl]-6-(pyridin-4-ylsulfonylmethyl)pyrimidin-2-yl]phenyl]urea], the IC50 falls from 1900 nM to 38 nM (50-fold).

Compared with `C[C@H]1COCCN1c1cc(CS(=O)(=O)C23CC4CC(CC(C4)C2)C3)nc(-c2ccc(NC(=O)NC3CC3)cc2)n1` [Example 43k, 1-[4-[4-(1-adamantylsulfonylmethyl)-6-[(3S)-3-methylmorpholin-4-yl]pyrimidin-2-yl]phenyl]-3-cyclopropyl-urea], `C[C@H]1COCCN1c1cc(CN(C)C)nc(-c2ccc(NC(=O)NC3CC3)cc2)n1` [Example 49d, 3-cyclopropyl-1-[4-[4-(dimethylaminomethyl)-6-[(3S)-3-methylmorpholin-4-yl]pyrimidin-2-yl]phenyl]urea] is 4.7-fold lower in IC50: 2900 nM for the first, 620 nM for the second.

`C[C@H]1COCCN1c1cc(CN2CCNC(=O)C2)nc(-c2ccc(NC(=O)NC3CC3)cc2)n1` [Example 49j, 3-cyclopropyl-1-[4-[4-[(3S)-3-methylmorpholin-4-yl]-6-[(3-oxopiperazin-1-yl)methyl]pyrimidin-2-yl]phenyl]urea] gave an IC50 of 130 nM.
